# In PubChem BioAssay (NCI):
# Where “and” joins values, the source holds several entries; their conditions need not be identical. Equal entries are not always repeated.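 Each compound was tested at five concentrations against cells in 96-well plates for 48 hours. The concentration for 50% growth inhibition is given as GI50. TGI denotes the concentration required for complete inhibition of growth.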
# Assays:
# P388/ADR leukemia = assay: NCI tumour cell line growth inhibition, 48 h
# P388 leukemia = assay: NCI tumour cell line growth inhibition, 48 h
smiles,measurement,setting,value
O=C(Nc1ccccc1)c1c(O)[nH]c(=S)[nH]c1=O,GI50,P388/ADR leukemia,46.9 µM
same,TGI,P388/ADR leukemia,80.6 µM and 116 µM
same,GI50,P388 leukemia,67 µM
same,TGI,P388 leukemia,57.7 µM and > 250 µM
